Literature values in patent publication US20250228771A1, “ALKALINE INTRAORAL PRODUCTS” (priority 2022, published 2025).

Details: Tomar S. L. et al., Tobacco Control 1997

SMILES: CN1CCCC1c1cccnc1 (stereo not shown) [nicotine]
- lower pKa: about 3.2
